In general, IC50 refers to the midpoint of a concentration-inhibition curve. A high value points to a need for much substance.

Data on 25 molecules can be found in patent US10752640B2, “Compounds active towards bromodomains” (NUEVOLUTION A/S, priority 2014, dated 2020).

The target of the assay is BRD4 protein (Homo sapiens, UniProt O60885). The experiment in a line: FRET assay, half maximal inhibitory concentration (IC50). The settings on record: BRD4 protein 50 nM, Biotin-H4KAc4 peptide 12.5 nM; A Further List of Classification. Type of assay: binding. In a few lines: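 Acetylated histone H4 peptide binding (biotin-H4KAc4, 12.5 nM final) to BRD4 (50 nM final) detected by TR-FRET between streptavidin cryptate (2.4 nM) and GST-XL665 antibody (10 nM) in KF/BSA. Buffer: HEPES pH 7.5, NaCl, CHAPS. Compound dilutions from 50 μM in 12.5% DMSO were preincubated with protein for 30 min. Variable-slope IC50.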
With `Cc1cc(O)nc2ccc(NC(=O)c3cc(S(=O)(=O)N(C)C)ccc3N3CCC4CN(C)CC43)cc12` (stereo not shown) [S54, 5-(dimethylsulfamoyl)-N-(2-hydroxy-4-methyl-6-quinolyl)-2-(5-methyl-2,3,3a,4,6,6a-hexahydropyrrolo[3,4-b]pyrrol-1-yl)benzamide], the IC50 lay in the range of 1000 to 10000 nM.

Molecule `Cc1cc(O)nc2ccc(NC(=O)c3cc(S(=O)(=O)N(C)C)ccc3N3CCCC3CC(C)C)cc12` (stereo not shown) [S55, 5-(dimethylsulfamoyl)-N-(2-hydroxy-4-methyl-6-quinolyl)-2-(2-isobutylpyrrolidin-1-yl)benzamide] had a half-inhibitory concentration (IC50) of 200 to 500 nM.

In the case of `Cc1cc(O)nc2ccc(NC(=O)c3cc(S(=O)(=O)N(C)C)ccc3N3CCCC3CN(C)C)cc12` (stereo not shown) [S56, 2-[2-(dimethylaminomethyl)pyrrolidin-1-yl]-5-(dimethylsulfamoyl)-N-(2-hydroxy-4-methyl-6-quinolyl)benzamide], the concentration for half-maximal inhibition (IC50) is less than 200 nM.

The molecule `Cc1cc(O)nc2ccc(NC(=O)c3cc(S(=O)(=O)N(C)C)ccc3N3CCCC3C(C)(C)O)cc12` (stereo not shown) [S57, 5-(dimethylsulfamoyl)-2-[2-(1-hydroxy-1-methyl-ethyl)pyrrolidin-1-yl]-N-(2-hydroxy-4-methyl-6-quinolyl)benzamide] returned an IC50 of 1000 to 10000 nM.

Regarding `Cc1cc(O)nc2ccc(NC(=O)c3cc(S(=O)(=O)N(C)C)ccc3N3CCCC3c3cc[nH]n3)cc12` (stereo not shown) [S59, 5-(dimethylsulfamoyl)-N-(2-hydroxy-4-methyl-6-quinolyl)-2-[2-(1H-pyrazol-3-yl)pyrrolidin-1-yl]benzamide], the IC50 was less than 200 nM.

As to `Cc1cc(O)nc2ccc(NC(=O)c3cc(S(=O)(=O)N(C)C)ccc3N3CCCC3c3nnn[nH]3)cc12` (stereo not shown) [S60, 5-(dimethylsulfamoyl)-N-(2-hydroxy-4-methyl-6-quinolyl)-2-[2-(1H-tetrazol-5-yl)pyrrolidin-1-yl]benzamide], the IC50 was less than 200 nM.

`Cc1cc(O)nc2ccc(NC(=O)c3cc(S(=O)(=O)N(C)C)ccc3N3CCC4C3CCCN4C)cc12` (stereo not shown) [S61, 5-(dimethylsulfamoyl)-N-(2-hydroxy-4-methyl-6-quinolyl)-2-(4-methyl-3,3a,5,6,7,7a-hexahydro-2H-pyrrolo[3,2-b]pyridin-1-yl)benzamide] registered an IC50 of 500 to 1000 nM.

As to `Cc1cc(O)nc2ccc(NC(=O)c3cc(S(=O)(=O)N(C)C)ccc3N3CCCC3C(=O)N(C)C)cc12` (stereo not shown) [S62, 1-[4-(dimethylsulfamoyl)-2-[(2-hydroxy-4-methyl-6-quinolyl)carbamoyl]phenyl]-N,N-dimethyl-pyrrolidine-2-carboxamide], the IC50 was less than 200 nM.

In turn, `Cc1cc(O)nc2ccc(NC(=O)c3cc(S(=O)(=O)N(C)C)ccc3N3C4CCC3CC(C)(O)C4)cc12` (stereo not shown) [S65, 5-(dimethylsulfamoyl)-2-(3-hydroxy-3-methyl-8-azabicyclo[3.2.1]octan-8-yl)-N-(2-hydroxy-4-methyl-6-quinolyl)benzamide] came in with an IC50 of 500 to 1000 nM.

The molecule `Cc1cc(O)nc2ccc(NC(=O)c3cc(S(=O)(=O)N(C)C)ccc3N3CC(C)C(O)CC3C)cc12` (stereo not shown) [S66, 5-(dimethylsulfamoyl)-2-(4-hydroxy-2,5-dimethyl-1-piperidyl)-N-(2-hydroxy-4-methyl-6-quinolyl)benzamide] came in with an IC50 of 500 to 1000 nM.

For the molecule `Cc1cc(O)nc2ccc(NC(=O)c3cc(S(=O)(=O)N(C)C)ccc3N3CCCCC3c3ccccc3)cc12` (stereo not shown) [S67, 5-(dimethylsulfamoyl)-N-(2-hydroxy-4-methyl-6-quinolyl)-2-(2-phenyl-1-piperidyl)benzamide], the IC50 was less than 200 nM.

`CCN(CC)S(=O)(=O)c1ccc(N2CCCC2)c(C(=O)Nc2ccc3nc(O)cc(C)c3c2)c1` [S71, 5-(diethylsulfamoyl)-N-(2-hydroxy-4-methyl-6-quinolyl)-2-pyrrolidin-1-yl-benzamide]: the IC50 lay within 500 to 1000 nM.

The molecule `CCN(CC)S(=O)(=O)c1ccc(N2CCCCC2)c(C(=O)Nc2ccc3nc(O)cc(C)c3c2)c1` [S72, 5-(diethylsulfamoyl)-N-(2-hydroxy-4-methyl-6-quinolyl)-2-(1-piperidyl)benzamide] returned an IC50 of 500 to 1000 nM.

In turn, `Cc1cc(O)nc2ccc(NC(=O)c3cc([N+](=O)[O-])cnc3N3CCCCC3C)cc12` (stereo not shown) [S74, N-(2-hydroxy-4-methyl-6-quinolyl)-2-(2-methyl-1-piperidyl)-5-nitro-pyridine-3-carboxamide] came in with an IC50 of 500 to 1000 nM.

Consider `O=C1CCc2cc(NC(=O)c3cc([N+](=O)[O-])ccc3N3CCCC3)ccc2N1` [S76, 5-nitro-N-(2-oxo-3,4-dihydro-1H-quinolin-6-yl)-2-pyrrolidin-1-yl-benzamide], for which the IC50 was in the range of 1000 to 10000 nM.

For the molecule `CN1C(=O)COc2cc(NC(=O)c3cc([N+](=O)[O-])ccc3N3CCCC3)ccc21` [S77, N-(4-methyl-3-oxo-1,4-benzoxazin-7-yl)-5-nitro-2-pyrrolidin-1-yl-benzamide], the IC50 fell in the range of 1000 to 10000 nM.

For `O=C1CCc2cc(NC(=O)c3cc(S(=O)(=O)N4CCOCC4)ccc3N3CCCC3)ccc2N1` [S78, 5-morpholinosulfonyl-N-(2-oxo-3,4-dihydro-1H-quinolin-6-yl)-2-pyrrolidin-1-yl-benzamide], the IC50 lay in the range of 1000 to 10000 nM.

The molecule `CN1C(=O)COc2cc(NC(=O)c3cc(S(=O)(=O)N4CCOCC4)ccc3N3CCCC3)ccc21` [S79, N-(4-methyl-3-oxo-1,4-benzoxazin-7-yl)-5-morpholinosulfonyl-2-pyrrolidin-1-yl-benzamide] had an IC50 of 1000 to 10000 nM.

`CN1CCN(Cc2ccc(N3CCCC3)c(C(=O)Nc3ccc4c(c3)CCC(=O)N4)c2)CC1` [S80, 5-[(4-methylpiperazin-1-yl)methyl]-N-(2-oxo-3,4-dihydro-1H-quinolin-6-yl)-2-pyrrolidin-1-yl-benzamide] gave an IC50 of 1000 to 10000 nM.

Take `Cc1cc(O)nc2ccc(NC(=O)c3cc(CN(C)CCO)ccc3N3CCCC3)cc12` [S81, 5-[[2-hydroxyethyl(methyl)amino]methyl]-N-(2-hydroxy-4-methyl-6-quinolyl)-2-pyrrolidin-1-yl-benzamide]: the IC50 is less than 200 nM.

As for `Cc1cc(O)nc2ccc(NC(=O)c3cc(CNCC4CCCO4)ccc3N3CCCC3)cc12` (stereo not shown) [S82, N-(2-hydroxy-4-methyl-6-quinolyl)-2-pyrrolidin-1-yl-5-[(tetrahydrofuran-2-ylmethylamino)methyl]benzamide], the IC50 was less than 200 nM.

Take `Cc1cc(O)nc2ccc(NC(=O)c3cc(CN4CCC(N(C)C)C4)ccc3N3CCCC3)cc12` (stereo not shown) [S83, 5-[[3-(dimethylamino)pyrrolidin-1-yl]methyl]-N-(2-hydroxy-4-methyl-6-quinolyl)-2-pyrrolidin-1-yl-benzamide]: the IC50 is less than 200 nM.

The molecule `Cc1cc(O)nc2ccc(NC(=O)c3cc(CN4CCC(O)C4)ccc3N3CCCC3)cc12` (stereo not shown) [S84, N-(2-hydroxy-4-methyl-6-quinolyl)-5-[(3-hydroxypyrrolidin-1-yl)methyl]-2-pyrrolidin-1-yl-benzamide] returned an IC50 of less than 200 nM.

For `COC[C@@H]1CCCN1Cc1ccc(N2CCCC2)c(C(=O)Nc2ccc3nc(O)cc(C)c3c2)c1` [S85, N-(2-hydroxy-4-methyl-6-quinolyl)-5-[[(2S)-2-(methoxymethyl)pyrrolidin-1-yl]methyl]-2-pyrrolidin-1-yl-benzamide], the IC50 was less than 200 nM.

In turn, `Cc1cc(O)nc2ccc(NC(=O)c3cc(CN4CCN(CCO)CC4)ccc3N3CCCC3)cc12` [S86, 5-[[4-(2-hydroxyethyl)piperazin-1-yl]methyl]-N-(2-hydroxy-4-methyl-6-quinolyl)-2-pyrrolidin-1-yl-benzamide] gave an IC50 of less than 200 nM.
